In the experiment the test system is hearts of aged (18-22 month old) WT mice. Nature of the experiment: Reversal of age-induced cardiac fibrosis and inflammation in aged WT mice (histology, immunofluorescence, western blot). The settings on record: aged (~20 month old) WT mice, 4 weeks, FIG. 19. In kind it is in vivo, mouse. Here is the method:
There are 8 different sets of in vivo experiments in this study: • A) Phenotypic characterisation of the heart and blood vessels in global IRAP knockout mice and their WT controls treated for 4 weeks with Angiotensin (Ang) II (800 ng/kg/min; s.c.) where mouse hearts and blood vessels were compared to tissue obtained from young WT and IRAP^−/− mice treated with saline. • B) Prevention of Ang II-induced changes in the cardiovascular system following IRAP inhibitor treatment. In the prevention model, WT mice were treated with Ang II (800 ng/kg/min; s.c.)±the IRAP inhibitor (HFI-419; 500 ng/kg/min for 28 days) or HFI-vehicle (1 DMSO:3 HBC). • C) Phenotypic characterisation of the aged heart, kidney and blood vessels in the global IRAP knockout mice where aged WT and IRAP^−/− mouse hearts, kidneys and blood vessels were compared to tissue obtained from young WT and IRAP^−/− mice. • D) Reversal of the age-induced changes in the cardiovascular system following IRAP inhibitor treatment. In the reversal model, aged WT mice were treated with either saline, IRAP inhibitor (HFI-419 at 500 ng/kg/min; compound 1 at 500 ng/kg/min; compound 2 at 50 ng/kg/min) or HFI-vehicle (1 DMSO: 3 HBC) for 4 weeks. • E) Prevention of ischemic-reperfusion injury in isolated hearts taken from aged global IRAP knockout mice and aged IRAP inhibitor (HFI-419 at 500 ng/kg/min; s.c.) treated WT mice compared to age-matched vehicle-treated (1 DMSO:3 HBC; s.c.) WT controls. • F) Phenotypic characterization of cardiac function using echocardiography in the aged global IRAP knockout mice compared to aged and young WT mice. • G) Phenotypic characterization of liver steatosis in IRAP knockout mice in a high fat diet (HFD) model. • H) Reversal of the salt-induced fibrosis in the liver following IRAP inhibitor treatment.
All mice which underwent surgery were anaesthetized with Isoflurane (Isorrane) (5% induction and 2.5% maintenance) and an incision made in the midscapular region through which osmotic minipumps (Alzet model 2004, Alza Corp) were inserted for subcutaneous drug administration. The incision area was sutured with 6/0 DY silk (Dynek Pty Ltd) and antibiotic powder applied (Cicatrin, Pfizer) followed by intramuscular injection of the analgesic Cartrophen (0.1 ml of a 1.5 mg/ml stock solution; Biopharm Australia). Systolic blood pressure (SBP) was measured fortnightly using non-invasive tail-cuff plethysmography apparatus (MC4000 Blood Pressure Analysis System, Hatteras Instrument Inc) before drug treatment (week 0), at week 2 of treatment and end of treatment (week 4). At the end of drug treatment, body weight of mice was recorded. Mice were anaesthetized using Isoflurane inhalation and killed by cervical dislocation. Organs (heart, aorta, kidneys, brain, blood and tibia) were collected, with heart and aorta being dissected appropriately as described below. All organs were then snap frozen in liquid nitrogen, and stored at −80° C. if they were not used for vascular reactivity studies conducted on the day mice were killed.
To measure collagen deposition, frozen sections of heart, kidney or aorta (all 5 μm thickness) were air dried for 10 minutes and were brought through 3 times xylene (2 minutes each), and 3 times absolute alcohol washes before being rinsed in tap H2O for 30 seconds. Staining with an optimal concentration of picrosirius red (in this instance 0.05% picrosirius red diluted in saturated picric acid) was performed and left for an hour. Sections were then rinsed in water and differentiated in 0.01 M HCl for 2 minutes, followed by dehydration via 3 times absolute alcohol washes. Then, slides were brought through 3 times xylene washes before being cover slipped according to standard histological techniques using DPX as the mounting medium. […]
(A western blot detects proteins with antibodies after separation by electrophoresis.)

Each structure is given as a SMILES string.

With `N[C@H]1CCSSC[C@@H](C(=O)NCc2ccccc2CC(=O)O)NC(=O)C[C@H](Cc2ccc(O)cc2)NC1=O` [Compound 2], the “age-induced collagen expression in the heart (picrosirius red)” value (compound 2 at 50 ng/kg/min) is on record as “reverse”.
Consider `CC(=O)C1=C(C)OC(N)=C(C#N)C1c1ccc(C(=O)O)cc1.N` (centres unmarked) [Compound 1, 4-(3-acetyl-6-amino-5-cyano-2-methyl-4H-pyran-4-yl)benzoic acid], for which the “age-induced collagen expression in the heart (picrosirius red)” value (compound 1 at 500 ng/kg/min) is “reverse”.

Source of the values: US11834663B2, “Fibrotic treatment” (Monash University, priority 2015, dated 2023).
